Experimental data from US20230085307A1, “PYRIDAZINONE COMPOUND AND HERBICIDE” (NISSAN CHEMICAL CORPORATION, priority 2019, published 2023).

Tests used:
[1] = tested on: redroot pigweed; experiment: Test Example 4: herbicidal effect by soil treatment (Table 19, symbol N); type: in vivo, redroot pigweed (Amaranthus retroflexus); conditions: amount of applied herbicide 320 g/ha
Outline: (§1)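 Emulsion of test compound, water-diluted to predetermined amount, sprayed on soil after sowing (seed depth ~1.5 cm, sterilized diluvial soil). Greenhouse, 25–30° C. Effect graded at three weeks post-spray.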

[2] = tested on: southern crabgrass; experiment: Test Example 4: herbicidal effect by soil treatment (Table 19, symbol F); type: in vivo, southern crabgrass (Digitaria ciliaris); conditions: amount of applied herbicide 320 g/ha
Outline: as §1

[3] = tested on: barnyard grass; experiment: Test Example 5: herbicidal effect by foliage application, plastic box (Table 20, symbol H); type: in vivo, barnyard grass (Echinochloa crus-galli); conditions: foliage application; for H: barnyard grass, herbicidal effect grade: 320 g/ha, three weeks after application
Outline: (§2)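 Post-emergence foliar test in sterilized diluvial soil. Compound applied as water-diluted emulsion at a predetermined rate to 14-day-old plants; evaluation at three weeks.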

[4] = tested on: Japanese bulrush; experiment: Test Example 1: herbicidal activity, application before weed generation under submerged conditions (Table 16, symbol B); type: in vivo, Japanese bulrush (Schoenoplectus juncoides); conditions: amount of applied herbicide 320 g/ha
Outline: (§3)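 Alluvial soil was flooded to 4 cm depth, weed seeds were sown mixed and 2.5-leaf rice seedlings were transplanted. On sowing day, the compound's emulsion, diluted in water to a set dose, was applied to the water surface. Plants grew at 25–30 °C and were scored 0–5 after three weeks.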

[5] = tested on: green foxtail; experiment: Test Example 5: herbicidal effect by foliage application, plastic box (Table 20, symbol G); type: in vivo, green foxtail (Setaria viridis); conditions: foliage application; for G: green foxtail, herbicidal effect grade: 320 g/ha, three weeks after application
Outline: as §2

[6] = tested on: barnyard grass; experiment: Test Example 4: herbicidal effect by soil treatment (Table 19, symbol H); type: in vivo, barnyard grass (Echinochloa crus-galli); conditions: amount of applied herbicide 320 g/ha
Outline: as §1

[7] = tested on: lambsquarters; experiment: Test Example 5: herbicidal effect by foliage application, plastic box (Table 20, symbol O); type: in vivo, lambsquarters (Chenopodium album); conditions: foliage application; for O: lambsquarters, herbicidal effect grade: 320 g/ha, three weeks after application
Outline: as §2

[8] = tested on: rice flat sedge; experiment: Test Example 3: herbicidal effect by foliage application, Wagner pot (Table 18, symbol E); type: in vivo, rice flat sedge (Cyperus iria); conditions: for herbicidal effect on rice flat sedge (E): 320 g/ha
Outline: (§4)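 Plants were sown in alluvial soil held under 0.1–0.5 cm standing water and grown 14 days in a greenhouse at 25–30 °C. An emulsifiable formulation, water-diluted to the set dose, was then sprayed onto the foliage, and effects were scored three weeks later using previously defined criteria.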

[9] = tested on: velvetleaf; experiment: Test Example 4: herbicidal effect by soil treatment (Table 19, symbol M); type: in vivo, velvetleaf (Abutilon theophrasti); conditions: amount of applied herbicide 320 g/ha
Outline: as §1

[10] = tested on: windgrass; experiment: Test Example 4: herbicidal effect by soil treatment (Table 19, symbol L); type: in vivo, windgrass (Apera spica-venti); conditions: amount of applied herbicide 320 g/ha
Outline: as §1

[11] = tested on: Chinese sprangletop; experiment: Test Example 3: herbicidal effect by foliage application, Wagner pot (Table 18, symbol D); type: in vivo, chinese sprangletop (Leptochloa chinensis)
Outline: as §4

[12] = tested on: barnyard grass; experiment: Test Example 3: herbicidal effect by foliage application, Wagner pot (Table 18, symbol H); type: in vivo, barnyard grass (Echinochloa crus-galli); conditions: for herbicidal effect on barnyard grass (H): 320 g/ha
Outline: as §4

[13] = tested on: green foxtail; experiment: Test Example 4: herbicidal effect by soil treatment (Table 19, symbol G); type: in vivo, green foxtail (Setaria viridis); conditions: amount of applied herbicide 320 g/ha
Outline: as §1

[14] = tested on: persian speedwell; experiment: Test Example 5: herbicidal effect by foliage application, plastic box (Table 20, symbol R); type: in vivo, Persian speedwell (Veronica persica); conditions: foliage application; for R: persian speedwell, herbicidal effect grade: 320 g/ha, three weeks after application
Outline: as §2

[15] = tested on: oval-leafed pondweed; experiment: Test Example 1: herbicidal activity, application before weed generation under submerged conditions (Table 16, symbol C); type: in vivo, oval-leafed pondweed (Monochoria vaginalis); conditions: amount of applied herbicide 320 g/ha
Outline: as §3

[16] = tested on: wild oat; experiment: Test Example 5: herbicidal effect by foliage application, plastic box (Table 20, symbol I); type: in vivo, wild oat (Avena fatua); conditions: foliage application; for I: wild oat, herbicidal effect grade: 320 g/ha, three weeks after application
Outline: as §2

[17] = tested on: windgrass; experiment: Test Example 5: herbicidal effect by foliage application, plastic box (Table 20, symbol L); type: in vivo, windgrass (Apera spica-venti); conditions: foliage application
Outline: as §2

[18] = AAH 320 g/ha, evaluated three weeks after application
[19] = amount of applied herbicide 320 g/ha

## Cc1nn(C)c(=O)c(-c2c(-c3ccc4c(c3)OC(F)(F)O4)sc3ccc(F)cc23)c1O [2-392]
[1]
  herbicidal effect, N: redroot pigweed: 3 (Herbicidal rate of 40% or more and less than 70%)
[2]
  herbicidal effect, F: southern crabgrass: 2 (Herbicidal rate of 20% or more and less than 40%)
[3]; [18]
  H: barnyard grass, herbicidal effect (criteria 0-5): 5 (Herbicidal rate of 90% or more (almost completely withered))
[4]
  Herbicidal effect, B: Japanese bulrush: 0 (Herbicidal rate of 5% or less (almost no effect))
[5]; [18]
  G: green foxtail, herbicidal effect (criteria 0-5): 3 (Herbicidal rate of 40% or more and less than 70%)
[6]
  herbicidal effect, H: barnyard grass: 2 (Herbicidal rate of 20% or more and less than 40%)
[7]; [18]
  O: lambsquarters, herbicidal effect (criteria 0-5): 5 (Herbicidal rate of 90% or more (almost completely withered))
[8]; [19]
  herbicidal effect on E: rice flat sedge: 5 (Herbicidal rate of 90% or more (almost completely withered))
[9]
  herbicidal effect, M: velvetleaf: 1 (Herbicidal rate of 5% or more and less than 20%)
[10]
  herbicidal effect, L: windgrass: 1 (Herbicidal rate of 5% or more and less than 20%)
[11]; [19]
  herbicidal effect on D: Chinese sprangletop: 4 (Herbicidal rate of 70% or more and less than 90%)
[12]; [19]
  herbicidal effect on H: barnyard grass: 5 (Herbicidal rate of 90% or more (almost completely withered))
[13]
  herbicidal effect, G: green foxtail: 1 (Herbicidal rate of 5% or more and less than 20%)
[14]; [18]
  R: persian speedwell, herbicidal effect (criteria 0-5): 5 (Herbicidal rate of 90% or more (almost completely withered))
[15]
  Herbicidal effect, C: oval-leafed pondweed: 0 (Herbicidal rate of 5% or less (almost no effect))
[16]; [18]
  I: wild oat, herbicidal effect (criteria 0-5): 4 (Herbicidal rate of 70% or more and less than 90%)
[17]; [18]
  L: windgrass, herbicidal effect (criteria 0-5): 0 (Herbicidal rate of 5% or less (almost no effect))

## CCCC(=O)Oc1c(C)nn(C)c(=O)c1-c1c(-c2ccc(OC)cc2)sc2cc(OCC)ccc12 [3-092]
[1]
  N: redroot pigweed, herbicidal effect grade: 3 (Herbicidal rate of 40% or more and less than 70%)
[2]
  F: southern crabgrass, herbicidal effect grade: 3 (Herbicidal rate of 40% or more and less than 70%)
[3]
  H: barnyard grass, herbicidal effect grade: 0 (Herbicidal rate of 5% or less (almost no effect))
[4]
  Herbicidal effect, B: Japanese bulrush: 3 (Herbicidal rate of 40% or more and less than 70%)
[5]
  G: green foxtail, herbicidal effect grade: 0 (Herbicidal rate of 5% or less (almost no effect))
[6]
  H: barnyard grass, herbicidal effect grade: 0 (Herbicidal rate of 5% or less (almost no effect))
[7]
  O: lambsquarters, herbicidal effect grade: 4 (Herbicidal rate of 70% or more and less than 90%)
[8]
  herbicidal effect on rice flat sedge (E): 4 (Herbicidal rate of 70% or more and less than 90%)
[9]
  M: velvetleaf, herbicidal effect grade: 0 (Herbicidal rate of 5% or less (almost no effect))
[10]
  L: windgrass, herbicidal effect grade: 0 (Herbicidal rate of 5% or less (almost no effect))
[12]
  herbicidal effect on barnyard grass (H): 0 (Herbicidal rate of 5% or less (almost no effect))
[13]
  G: green foxtail, herbicidal effect grade: 0 (Herbicidal rate of 5% or less (almost no effect))
[14]
  R: persian speedwell, herbicidal effect grade: 5 (Herbicidal rate of 90% or more (almost completely withered))
[15]
  Herbicidal effect, C: oval-leafed pondweed: 3 (Herbicidal rate of 40% or more and less than 70%)
[16]
  I: wild oat, herbicidal effect grade: 0 (Herbicidal rate of 5% or less (almost no effect))
[17]; 320 g/ha, three weeks after application
  L: windgrass, herbicidal effect grade: 0 (Herbicidal rate of 5% or less (almost no effect))

## CCCC(=O)Oc1c(C)nn(C)c(=O)c1-c1c(-c2ccc(C(F)(F)F)cc2)sc2cc(F)ccc12 [3-140]
[1]
  Herbicidal effect by soil treatment, N: redroot pigweed: 4 (Herbicidal rate of 70% or more and less than 90%)
[2]
  Herbicidal effect by soil treatment, F: southern crabgrass: 0 (Herbicidal rate of 5% or less (almost no effect))
[3]
  H: barnyard grass, herbicidal effect grade: 3 (Herbicidal rate of 40% or more and less than 70%)
[4]
  Herbicidal effect, B: Japanese bulrush: 3 (Herbicidal rate of 40% or more and less than 70%)
[5]
  G: green foxtail, herbicidal effect grade: 2 (Herbicidal rate of 20% or more and less than 40%)
[6]
  Herbicidal effect by soil treatment, H: barnyard grass: 0 (Herbicidal rate of 5% or less (almost no effect))
[7]
  O: lambsquarters, herbicidal effect grade: 4 (Herbicidal rate of 70% or more and less than 90%)
[8]
  herbicidal effect on rice flat sedge (E): 5 (Herbicidal rate of 90% or more (almost completely withered))
[9]
  Herbicidal effect by soil treatment, M: velvetleaf: 0 (Herbicidal rate of 5% or less (almost no effect))
[10]
  Herbicidal effect by soil treatment, L: windgrass: 0 (Herbicidal rate of 5% or less (almost no effect))
[11]; 320 g/ha
  herbicidal effect on Chinese sprangletop (D): 4 (Herbicidal rate of 70% or more and less than 90%)
[12]
  herbicidal effect on barnyard grass (H): 5 (Herbicidal rate of 90% or more (almost completely withered))
[13]
  Herbicidal effect by soil treatment, G: green foxtail: 0 (Herbicidal rate of 5% or less (almost no effect))
[14]
  R: persian speedwell, herbicidal effect grade: 5 (Herbicidal rate of 90% or more (almost completely withered))
[15]
  Herbicidal effect, C: oval-leafed pondweed: 3 (Herbicidal rate of 40% or more and less than 70%)
[16]
  I: wild oat, herbicidal effect grade: 2 (Herbicidal rate of 20% or more and less than 40%)
